Test results published in patent publication EP3184516A1, “CRYSTALLINE INCLUSION COMPLEXES OF MIRABEGRON WITH BETA-CYCLODEXTRIN” (Enantia, S.L., priority 2015, dated 2017).
≈ marks a conversion by molar mass, not a printed value. Counter-ions that a name gives are not always drawn. Like-named read-outs stand apart in the source and are kept apart here. Blank lines part the entries; values can stand above or below the molecule they belong to.

How the values were obtained:
[1] = cited from earlier work
[2] = Water solubility study at room temperature by HPLC analysis of saturated water solutions; type: physicochemical
Method: A water solubility study at room temperature was performed comparing Mirabegron Form α and crystalline inclusion complexes of Mirabegron with β-cyclodextrin Forms I and II by HPLC analysis of saturated water solutions.
A slurring of Mirabegron Form α was performed under the same conditions.
A slurring of Mirabegron Form α (20 mg) was performed in the same conditions.

[3] = according to EP1440969A1, cited from earlier work
[4] = Kalariya et al., RSC Adv. 2015; cited from earlier work
[5] = Solubility tests performed by the present inventors; type: physicochemical
From the text: Two different crystal forms of Mirabegron free base, named as α-form and β-form, were also disclosed in EP1440969A1.

HPLC peak area corresponding to Mirabegron ([2]; 20 mg stirred in 0.8 ml of water for 19h, mother liquor (Form I experiment)): 1728 counts | HPLC peak area corresponding to Mirabegron ([2]; 24 mg (Form α 20 mg) stirred in 1 ml of water for 19h, mother liquor (Form II experiment)): 1570 counts
SMILES: Nc1nc(CC(=O)Nc2ccc(CCNC[C@H](O)c3ccccc3)cc2)cs1 [Mirabegron Form α, 2-(2-amino-1,3-thiazol-4-yl)-N-[4-(2-{[(2R)-2-hydroxy-2-phenylethyl]amino}ethyl)phenyl]acetamide]
solubility in water (in words) ([1]; according to EP1440969A1): practically insoluble | hygroscopicity ([3]; listed as α-form): non-hygroscopic | stability of crystal form ([3]; listed as α-form): stable

solubility in water at room temperature [5]: less than 50 volumes
SMILES: Nc1nc(CC(=O)Nc2ccc(CCNC[C@H](O)c3ccccc3)cc2)cs1 [Mirabegron, 2-(2-amino-1,3-thiazol-4-yl)-N-[4-(2-{[(2R)-2-hydroxy-2-phenylethyl]amino}ethyl)phenyl]acetamide]
degradation under hydrolytic and oxidative stress conditions [4]: degrades | stability under thermal and photolytic conditions [4]: stable | solubility in water ([1]; free base, AusPar / FDA prescribing information): 82 µg/mL (≈ 207 µM)

SMILES: Nc1nc(CC(=O)Nc2ccc(CCNC[C@H](O)c3ccccc3)cc2)cs1 [dihydrochloride salt]
hygroscopicity [3]: strongly hygroscopic | stability of crystal form [3]: unstable

SMILES: Nc1nc(CC(=O)Nc2ccc(CCNC[C@H](O)c3ccccc3)cc2)cs1 [β-form, 2-(2-amino-1,3-thiazol-4-yl)-N-[4-(2-{[(2R)-2-hydroxy-2-phenylethyl]amino}ethyl)phenyl]acetamide]
hygroscopicity [3]: low hygroscopicity | stability of crystal form [3]: metastable
